Reference: patent publication US9102754B2, “Immunomodulatory compositions and methods for treating disease with modified host defense peptides” (priority 2007, dated 2015)
Like-named read-outs stand apart in the source and are kept apart here. Non-standard residues stand in square brackets, D forms with d.

Columns and labels:
[1] = test system: LPS-induced expression of BIRC3, CCL20, IL-8 and IL-10 in bovine monocytes; test: HDP inhibition of LPS-induced gene expression (qRT-PCR); format: cell-based; settings: 100 ng/ml LPS; for reduction of LPS-induced CCL20 expression / reduction of LPS-induced IL-8 expression / reduction of LPS-induced IL-10 expression: 0.5 μg/mL peptide; for suppression of the induction of LPS-induced genes: 5 μg/mL peptide, 4 hours
Source text: The induction of inflammation responses by lipopolysaccharide (LPS) has clinical significance as a mechanism of sepsis and also serves as a biomarker for the ability of HDPs to mediate anti-endotoxic function. Our investigation focuses on patterns of expression of genes (BIRC3, CCL20, IL-8 and IL-10) identified through microarray analysis to show the most significant levels of differential expression in response to LPS-stimulation in monocytes, Mookherjee et al., J. Leokocyte. Biol. 80:1-12, 2006; Mookherjee et al., J. Immunol. 176: 2455-2464, 2006. […] Biol. 80:1-12, 2006; Mookherjee et al., J. Immunol. 176: 2455-2464, 2006.
The data presented represents the average of experiments performed in triplicate for a single animal. While all three animals, each tested in triplicate, gave the same trend of responses, the magnitude of these responses is unique for each animal. This is typical of the animal-to-animal variation in the magnitude of LPS-induced responses that has been observed by our group.
Monocytes were purified from isolated PBMCs by MACS® purification using CD14 microbeads (Miltenyi Biotec Inc., Auburn, Calif.). Monocytes were then plated at 5×10^6 cells/well in 6-well plates using Aim V medium (Gibco™, Invitrogen Corp., San Diego, Calif.) supplemented with 10% heat-inactivated fetal bovine serum (Gibco™) and rested for 19 hours before stimulation.
The ability of BMAP-28 and RI-BMAP-28 to modulate patterns of gene expression induced by endotoxin stimulation was determined in cultured monocytes. Cultured monocytes were stimulated with purified LPS (100 ng/ml) in the presence or absence of different concentrations of antimicrobial peptides for 4 hours. […] Biol. 80:1-12, 2006; Mookherjee et al., J. Immunol. 176: 2455-2464, 2006, and in vivo, Clapp et al., Am. J. Respir. Cri. Care Med. 150: 611-617, 1994. Cells were pelleted and stored at −81° C.
RNA was extracted from the bovine PBMCs with the RNeasy Mini Kit (Qiagen Inc., Ontario, Canada) and the RNase-free DNase (Qiagen Inc.) as per the manufacturer's protocols.
Quantitive real-time PCR (qRT-PCR) was performed using Invitrogen's SuperScript™ III Platinum® two step qRT-PCR kit with SYBR® Green (Invitrogen Corp., San Diego, Calif.) on the Bio-Rad (Hercules, Calif.) iCycler. Briefly, 250 ng total RNA, 8 μL 2×RT reaction mix, 2 μL RT enzyme, and DNase/RNase free water were added to a final volume of 20 μL. The mixture was incubated at 25° C. for 5 minutes, followed by 1 hour incubation at 50° C. and a final incubation of 15 min at 70° C. to produce the cDNA. The PCR reaction was carried out as per the manufacturer's instructions (Invitrogen Corp.) using a mix of Platinum® SYBR® Green qRT-PCR Super-Mix UDG, the template cDNA, […] of the primer mix, and DNase/RNase free water up to 15 μL total volume per well. Cycling conditions were carried out as indicated by the Invitrogen's SuperScript™ III Platinum® two-step qRT-PCR kit with SYBR® Green.

[2] = test system: LPS-induced TNF-α secretion in bovine PBMCs; test: HDP inhibition of LPS-induced TNF secretion (capture ELISA); format: cell-based; settings: 100 ng/ml LPS, various peptide concentrations
Source text: As patterns expression are not necessarily predictive of final biological responses we sought to confirm the immunomodulatory capabilities of RI-BMAP-28 through independent analysis. Specifically, the ability of the two isomers to influence secretion of the pro-inflammatory cytokine tumor necrosis factor alpha (TNF-α) following LPS stimulation was examined. Secretion of TNF-α is a well established biomarker of inflammation responses (52).
The secretion of TNF in culture supernatants was quantified with a capture ELISA. Inhibition of LPS-induced TNF secretion was evaluated by adding various concentrations of BMAP-28 (▴) or retro-inverso RI-BMAP-28 (▪) to duplicate PBMCs cultures. The data presented experiments performed in a single animal. While all three animals gave the same trend of responses, the magnitude of these responses is unique for each animal. […]
Untreated cells or cells treated with LPS for 24 h, in the presence or absence of the HDPs, were centrifuged at 1000×g for 5 min followed by 10,000×g for 10 min to obtain cell-free tissue culture supernatant samples. […] TNF-α secretion was monitored with a species-specific capture ELISA (37). […] The concentration of the cytokine was quantified by establishing a standard curve with serial dilutions of the recombinant human TNF-α (eBioscience, San Diego, Calif.) or bovine TNFα (Genetech Inc. San Francisco, Calif.).

[3] = test system: Salmonella typhimurium ATCC 14028, Escherichia coli O157:H7, Serratia marcescens ATCC 274, Yersinia enterocolitica O:9 E40 (pYV40), Pseudomonas cepacia ATCC …; test: Minimal inhibitory concentration, modified broth microdilution; format: cell-based
Source text: The present study examined the direct antimicrobial activity of BMAP-28 and RI-BMAP-28 against a series of bacterium which are of medical interest. […] This conclusion is also consistent with the maintained sequence and structure of the RI-BMAP-28. Antimicrobial activity, which is dependent upon non-chiral interactions with bacterial membranes, is anticipated to have the lowest structural requirements for maintenance of activity.
The bacterial strains used for this investigation were Salmonella typhimurium ATCC 14028, Escherichia coli O157:H7, Serratia marcescens ATCC 274, Yersinia enterocolitica O:9 E40 (pYV40), Pseudomonas cepacia ATCC 53795, and Salmonella enterititidis 27655R PT4.
The MIC of the peptides were measured using a modified broth microdilution method, Wu et al., Antimicrob. Agents Chemother. 43: 1274-1276, 1999, in LB medium, whereby the assay was performed in sterile 96-well, round-bottom polypropylene microtitre plates with an inoculum of 5×10^5 bacteria per mL. The plates were incubated at 37° C. for 12 h, solutions spotted onto LB-agar plates and the MIC was taken as the concentration at which no growth was observed.

PhoQ = target: T1, PhoQ (Salmonella typhimurium, UniProt P0DM80); test: PhoPQ reporter assay (PhoN-PhoA fusion); format: cell-based, S. typhimurium strain CS 120; settings: 5 μg/mL peptide, 5 mM magnesium
T1 construct: S. typhimurium strain CS 120, which expresses a PhoP-regulated fusion between Salmonella acid phosphatase (PhoN) and E. coli alkaline phosphatase (PhoA); endogenous in cells; host or cells: S. typhimurium strain CS 120
T1 sequence (P0DM80 whole entry, the tested form may be a part): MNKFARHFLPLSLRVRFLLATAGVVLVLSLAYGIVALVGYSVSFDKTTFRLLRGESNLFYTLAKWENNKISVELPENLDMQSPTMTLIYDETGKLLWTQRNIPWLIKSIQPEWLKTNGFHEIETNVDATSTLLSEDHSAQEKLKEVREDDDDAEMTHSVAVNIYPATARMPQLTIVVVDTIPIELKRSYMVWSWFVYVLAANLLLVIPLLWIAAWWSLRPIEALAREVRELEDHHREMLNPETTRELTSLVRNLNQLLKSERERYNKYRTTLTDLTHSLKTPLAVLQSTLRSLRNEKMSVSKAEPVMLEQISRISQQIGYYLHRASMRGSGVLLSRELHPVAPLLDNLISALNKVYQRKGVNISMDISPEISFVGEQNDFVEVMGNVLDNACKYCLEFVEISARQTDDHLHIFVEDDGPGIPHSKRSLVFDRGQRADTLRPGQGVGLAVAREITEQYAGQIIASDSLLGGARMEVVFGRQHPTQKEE
Description: S. typhimurium strain CS 120, which expresses a PhoP-regulated fusion between Salmonella acid phosphatase (PhoN) and E. coli alkaline phosphatase (PhoA), was utilized for the analysis of PhoPQ activation. The activity of this fusion protein was measured in media containing varying concentrations of the peptides and/or magnesium. For growth under PhoPQ activating conditions the growth media was supplemented with 50 μM MgCl2. Growth under PhoPQ-repressive conditions was performed in the presence of 5 mM MgCl2 as were all of the assays of peptide responses.
The ability of BMAP28 and RI-BMAP28 to initiate activation of a PhoPQ-dependent reporter was examined by incubation of bacterium in the presence of sub-lethal (5 μg/mL) concentrations of indicated peptide as well as 5 mM magnesium. Values reported represent the averages of three replicates. Activation and repression of PhoPQ by low (50 μM) and high (5 mM) magnesium respectively is also reported.
S. typhimurium strain CS 120, which expresses a PhoP-regulated fusion between Salmonella acid phosphatase (PhoN) and E. coli alkaline phosphatase (PhoA) was utilized for analysis of PhoPQ activation. The activity of this fusion protein was measured in salt-free LB media containing varying concentrations of the peptides and/or magnesium. For growth under PhoPQ activating conditions the growth media was supplemented with 50 μM MgCl2. […]

bovine erythrocytes = test: Cytotoxicity (hemolysis) assay; format: cell-based
Description: To determine the cytotoxicity of BMAP-28 and RI-BMAP-28 the peptides were incubated overnight at a range of concentrations in the presence of bovine erythrocytes. Consistent with what has been reported by others, BMAP-28 began to exert a cytotoxic effect at concentrations as low as 30 μg/mL. Complete hemolysis was observed by 200 μg/mL of BMAP-28. […] As toxicity currently represents a limiting factor to the systemic administration of HDPs this finding could be of particular significance.
Hemolysis was performed by incubating a 1% (v/v) suspension of bovine erythrocytes in phosphate buffered saline (pH 7.4) with a series of peptide concentrations for 12 hours at 37° C. Samples were then centrifuged and the supernatant absorbance read at 415 nm. Total hemolysis was obtained by resuspending in cells in water rather than PBS. Results are the average from four independent experiments.
Cytotoxicity assays were performed as based upon previously established protocols, Chen et al., Chem. Biol. Drug Des. 67: 162-173, 2006. Briefly, peptide samples were added to 1% bovine erythrocytes in phosphate-buffered saline and reactions were incubated at 37° C. for 18 h in microtiter plates. Appropriate dilutions of the peptides were made fresh prior to each MHC trial in HDP dilution buffer (0.2% BSA, 0.01% acetic acid) and added following addition of the erythrocytes in the appropriate microtiter plate well position. Hemolysis was determined by withdrawing aliquots from the assays, removing unlysed erythrocytes by centrifugation (800×g) and determining which peptide concentrations cause hemoglobin release. Hemoglobin release was determined spectrophotometrically at 570 nm. A sample of 1% erythrocytes with no added peptide served as a non-lysis control. As erythrocytes were incubated in an isotonic medium, no detectable release (<1% of that released upon complete hemolysis) of hemoglobin was observed from this control.

mice = settings: cited from earlier work

| Substance | reduction of LPS-induced CCL20 expression [1] | reduction of LPS-induced IL-8 expression [1] | reduction of LPS-induced IL-10 expression [1] | suppression of the induction of LPS-induced genes [1] | inhibition of LPS-induced TNF-α secretion [2] | potency as direct antimicrobial agent versus natural isomer ([3]; against a spectrum of bacteria) | MIC values relative to that of the natural peptide ([3]; all strains tested, LB medium, 37° C., 12 h) | activation of PhoPQ-dependent reporter (PhoQ) | cytotoxic effects over the range of peptide concentrations examined (bovine erythrocytes; 1% bovine erythrocytes in PBS, overnight, 37° C.) | LD50 (mice; administered intravenously) | LD50 (mice; mice, i.p. administration) | concentration at which a cytotoxic effect begins (bovine erythrocytes) | concentration giving complete hemolysis (bovine erythrocytes) |
| --- | --- | --- | --- | --- | --- | --- | --- | --- | --- | --- | --- | --- | --- |
| D-amino acids of NH2-GIRIIPVIIPGYKKWARLIKRGLSRLG-COOH (H-G[dI][dR][dI][dI][dP][dV][dI][dI][dP]G[dY][dK][dK][dW][dA][dR][dL][dI][dK][dR]G[dL][dS][dR][dL]G-OH; also: retro-inverso) [RI-BMAP-28, retro-inversed form of BMAP-28] | two-fold reduction | four-fold | two-fold reduction | four to five-fold suppression | dose-dependent inhibition | 2-3 fold | half to a third | identical patterns of activation | did not exhibit any cytotoxic effects |  |  |  |  |
| NH2-GLRSLGRKILRAWKKYGPIIVPIIRIG-COOH (H-GLRSLGRKILRAWKKYGPIIVPIIRIG-OH) [BMAP-28, natural host defense peptide, a 27 amino acid proteolytic product of the antibacterial peptide BMAP-28 precursor protein] | two-fold reduction | four-fold | two-fold reduction | four to five-fold suppression | dose-dependent inhibition |  |  | identical patterns of activation |  | 15 mg/kg | approximately 40 mg/kg | 30 µg/mL | ≤ 200 µg/mL |
